From US10202418B2, “Hydroxy-ethylene derivatives for the treatment of arthrosis” (MERCK PATENT GMBH, priority 2013, dated 2019)
Starred links: 1 amine or outer side, 2 acyl side, 3 side chain; linkers in the order of their positions; H or OH if unused. Non-standard residues stand in square brackets, D forms with d. Residues, ends and D or L forms follow the SMILES beside them. *: point of attachment. Hexanoyl(5S-NH,4S-OH,6-Ph) = O=C(CC[C@H](O)[C@H](Cc1ccccc1)N[*:1])[*:2]; Isovaleryl = CC(C)CC(=O)*; Boc = CC(C)(C)OC(=O)*

What was measured:
[1] = molecular target: cathepsin D isolated from the human liver (Homo sapiens (Human), UniProt P07339); experiment: In-vitro fluorescence assay for identification of cathepsin D inhibitors; type: biochemical; conditions: cathepsin D 1.4 nM, pH 5.5; values in E notation; read-out: Cath D IC50
Description: In order to identify modulators of cathepsin D activity, a continuous enzymatic test was carried out with a synthetic peptide which carries a fluorescent group (MCA=(7-methoxycoumarin-4-yl)acetyl) which is quenched by energy transfer from a Dpn (2,4 dinitrophenyl) group on the same molecule, in Greiner 384-well nb microtitre plates. Cleavage of the peptidic substrate by cathepsin D causes an increase in the fluorescence intensity. In order to determine the efficacy of substances, the time-dependent increase in the fluorescence intensity in the presence of the substance was compared with the time-dependent increase in fluorescence in the absence of substances. The reference substance used was pepstatin A (Sigma-Aldrich). The substrate used was MCA-GKPILFFRLK(Dnp)d-R—NH2 (Enzo Life Sciences, Lor-rach). The enzyme employed was cathepsin D isolated from the human liver (Sigma-Aldrich) in a final concentration of 1.4 nM. The test was carried out in 100 mM sodium acetate buffer, 1.25% (v/v) of DMSO, 0.25% (w/v) of Chaps, pH 5.5. 2 μl of each substance solution with serially diluted substance concentration were added to in each case 4 μl of cathepsin D solution and incubated at room temperature for 10 min. The reaction was started by addition of 2 μl of substrate solution (final concentration 5 μM). After carrying out a starting-point fluorescence measurement (excitation wavelength 340 nm/emission wavelength 450 nm) using an Envision multilabel reader (Perkin Elmer), the reaction was incubated at room temperature for 60 min. The amount of peptide fragment cleaved off during the reaction time was subsequently measured by determination of the increase in the fluorescence intensity at 450 nm (excitation wavelength 340 nm).
The IC50 values of the compounds according to the invention can be obtained from Table 2 from Example 1.

recombinant human renin = recombinant human renin (Homo sapiens (Human), UniProt P00797); experiment: In-vitro fluorescence assay for identification of renin-inhibitory activity; type: biochemical; conditions: renin 10 nM, pH 7.2
Description: In order to identify modulators of renin activity, a continuous enzymatic test was carried out with a synthetic peptide which carries a fluorescent group Edans (=(5-(aminoethyl)aminonaphthalenesulfonate) which is quenched by energy transfer from a Dabcyl (4′-dimethylaminoazobenzene-4-carboxylate) group on the same molecule, in Greiner 384-well microtitre plates. Cleavage of the peptidic substrate by renin causes an increase in the fluorescence intensity. In order to determine the efficacy of substances, the time-dependent increase in the fluorescence intensity in the presence of the substance was compared with the time-dependent increase in fluorescence in the absence of substances. The reference substance used was renin inhibitor 2 (Z-Arg-Arg-Pro-Phe-His-Sta-Ile-His N-Boc-Lys methyl ester Z) (Sigma-Aldrich). The substrate used was renin FRET substrate I (DABCYL-g-Abu-Ile-His-Pro-Phe-His-Leu-Val-Ile-His-Thr EDANS) (Anaspec, Fremont Calif.). The enzyme employed was recombinant human renin (Proteos, Kalamazoo, Mich.) in a final concentration of 10 nM. The test was carried out in 50 mM Mops buffer, 1.5% (v/v) of DMSO, 0.1% (w/v) of Igepal®, pH 7.2, 0.5% (w/v) of BSA. 2 μl of each substance solution with serially diluted substance concentration were added to in each case 4 μl of renin solution and incubated at room temperature for 15 min. The reaction was started by addition of 4 μl of substrate solution (final concentration 5 μM). After carrying out a starting-point fluorescence measurement (excitation wavelength 340 nm/emission wavelength 495 nm) using an Envision multilabel reader (Perkin Elmer), the reaction was incubated at 37° C. for 60 min. The amount of peptide fragment cleaved off during the reaction time was subsequently measured by determination of the increase in the fluorescence intensity at 495 nm (excitation wavelength 340 nm).

recombinant human renin, sequence (P00797 67-406): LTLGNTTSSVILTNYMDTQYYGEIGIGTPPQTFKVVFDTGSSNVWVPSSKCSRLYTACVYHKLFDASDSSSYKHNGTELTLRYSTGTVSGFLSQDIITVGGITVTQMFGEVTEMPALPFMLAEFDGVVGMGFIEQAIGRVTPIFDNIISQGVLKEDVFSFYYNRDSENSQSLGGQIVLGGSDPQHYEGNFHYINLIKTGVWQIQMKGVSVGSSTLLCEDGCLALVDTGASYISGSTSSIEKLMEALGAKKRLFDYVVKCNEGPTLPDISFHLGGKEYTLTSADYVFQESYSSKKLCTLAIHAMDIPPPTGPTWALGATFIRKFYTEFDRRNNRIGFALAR
cathepsin D isolated from the human liver, sequence (P07339 65-161): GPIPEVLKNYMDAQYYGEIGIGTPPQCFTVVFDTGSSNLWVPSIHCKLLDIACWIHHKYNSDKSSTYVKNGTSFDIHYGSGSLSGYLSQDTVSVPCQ
cathepsin D isolated from the human liver, sequence (P07339 169-412): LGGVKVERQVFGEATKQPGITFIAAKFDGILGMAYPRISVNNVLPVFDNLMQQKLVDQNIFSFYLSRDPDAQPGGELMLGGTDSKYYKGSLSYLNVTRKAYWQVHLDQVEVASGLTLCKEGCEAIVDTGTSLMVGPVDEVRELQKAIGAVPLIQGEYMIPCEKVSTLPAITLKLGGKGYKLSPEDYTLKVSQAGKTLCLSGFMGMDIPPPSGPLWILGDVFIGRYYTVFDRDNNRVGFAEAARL

| Compound | IC50 [1] [µM] | IC50 (recombinant human renin; values in E notation) [µM] | IC50 (recombinant human renin) [µM] |
| --- | --- | --- | --- |
| CC[C@H](C)[C@H](NC(=O)CC[C@H](O)[C@H](Cc1ccccc1)NC(=O)[C@@H](NC(=O)[C@H](CC(C)C)NC(=O)OC(C)(C)C)C(C)C)C(=O)NCc1cnc(C)nc1N [Compound A1, {(S)-1-[(S)-1-((1S,2S)-4-{(1S,2S)-1-[(4-Amino-2-methylpyrimidin-5-yl-methyl)carbamoyl]-2-methylbutylcarbamoyl}-1-benzyl-2-hydroxybutyl-carbamoyl)-2-methylpropylcarbamoyl]-3-methylbutyl}carbamic acid tert-butyl ester] | 0.43 | 0.32 | – |
| CC[C@H](C)[C@H](NC(=O)CC[C@H](O)[C@H](Cc1ccccc1)NC(=O)[C@@H](NC(=O)[C@H](CC(C)C)NC(=O)OC(C)(C)C)C(C)C)C(=O)N[C@H](C(=O)OC)C(C)C [Compound A2, (S)-2-((2S,3S)-2-{(4S,5S)-5-[(S)-2-((S)-2-tert-Butoxycarbonylamino-4-methylpentanoylamino)-3-methylbutyrylamino]-4-hydroxy-6-phenyl-hexanoylamino}-3-methylpentanoylamino)-3-methylbutyric acid methyl ester] (Boc-LV[Hexanoyl(5S-NH,4S-OH,6-Ph)]IV-OMe) | 0.041 | 1.1 | – |
| CC(C)[C@H](NC(=O)Cc1cccc(OC(F)(F)F)c1)C(=O)N[C@@H](Cc1ccccc1)[C@@H](O)CCC(=O)NCCc1ccccc1 [Compound A3, (4S,5S)-4-Hydroxy-5-{(S)-3-methyl-2-[2-(3-trifluoromethoxyphenyl)-acetylamino]butyrylamino}-6-phenylhexanoic acid phenethylamide] | – | – | > 30 |
| COc1ccc(OC(F)(F)F)cc1CC(=O)N[C@H](C(=O)N[C@@H](Cc1ccccc1)[C@@H](O)CCC(=O)NCCc1ccccc1)C(C)C [Compound A4, (4S,5S)-4-Hydroxy-5-{(S)-2-[2-(2-methoxy-5-trifluoromethoxyphenyl)-acetylamino]-3-methylbutyrylamino}-6-phenylhexanoic acid phenethyl-amide] | 4 | – | > 30 |
| COc1ccc(CC(=O)N[C@H](C(=O)N[C@@H](Cc2ccccc2)[C@@H](O)CCC(=O)NCCc2ccccc2)C(C)C)cc1OC [Compound A5, (4S,5S)-5-{(S)-2-[2-(3,4-Dimethoxyphenyl)acetylamino]-3-methylbutyryl-amino}-4-hydroxy-6-phenylhexanoic acid phenethylamide] | – | – | > 30 |
| CC(C)[C@H](NC(=O)Cc1cccc(Oc2ccccc2)c1)C(=O)N[C@@H](Cc1ccccc1)[C@@H](O)CCC(=O)NCCc1ccccc1 [Compound A6, (4S,5S)-4-Hydroxy-5-{(S)-3-methyl-2-[2-(3-phenoxyphenyl)acetylamino]-butyrylamino}-6-phenylhexanoic acid phenethylamide] | 12 | – | > 30 |
| COc1ccc(CC(=O)N[C@H](C(=O)N[C@@H](Cc2ccccc2)[C@@H](O)CCC(=O)NCCc2ccccc2)C(C)C)cc1 [Compound A7, (4S,5S)-4-Hydroxy-5-{(S)-2-[2-(4-methoxyphenyl)acetylamino]-3-methyl-butyrylamino}-6-phenylhexanoic acid phenethylamide] | – | – | > 30 |
| COc1cccc(CC(=O)N[C@H](C(=O)N[C@@H](Cc2ccccc2)[C@@H](O)CCC(=O)NCCc2ccccc2)C(C)C)c1 [Compound A8, (4S,5S)-4-Hydroxy-5-{(S)-2-[2-(3-methoxyphenyl)acetylamino]-3-methyl-butyrylamino}-6-phenylhexanoic acid phenethylamide] | – | – | > 30 |
| COc1ccccc1CC(=O)N[C@H](C(=O)N[C@@H](Cc1ccccc1)[C@@H](O)CCC(=O)NCCc1ccccc1)C(C)C [Compound A9, (4S,5S)-4-Hydroxy-5-{(S)-2-[2-(2-methoxyphenyl)acetylamino]-3-methyl-butyrylamino}-6-phenylhexanoic acid phenethylamide] | – | – | > 30 |
| Cc1ccc(OCC(=O)N[C@H](C(=O)N[C@@H](Cc2ccccc2)[C@@H](O)CCC(=O)NCCc2ccccc2)C(C)C)cc1C [Compound A10, (4S,5S)-5-{(S)-2-[2-(3,4-Dimethylphenoxy)acetylamino]-3-methylbutyryl-amino}-4-hydroxy-6-phenylhexanoic acid phenethylamide] | – | – | > 30 |
| CC(C)[C@H](NC(=O)Cc1cccc2ccccc12)C(=O)N[C@@H](Cc1ccccc1)[C@@H](O)CCC(=O)NCCc1ccccc1 [Compound A12, (4S,5S)-4-Hydroxy-5-[(S)-3-methyl-2-(2-naphthalen-1-ylacetylamino)-butyrylamino]-6-phenylhexanoic acid phenethylamide] | – | – | > 30 |
| CC(C)[C@H](NC(=O)C(c1ccccc1)c1ccccc1)C(=O)N[C@@H](Cc1ccccc1)[C@@H](O)CCC(=O)NCCc1ccccc1 [Compound A13, (4S,5S)-5-((S)-2-Diphenylacetylamino-3-methylbutyrylamino)-4-hydroxy-6-phenylhexanoic acid phenethylamide] | 4.3 | – | > 30 |
| Cc1cccc(C)c1NC(=O)CC[C@H](O)[C@H](Cc1ccccc1)NC(=O)[C@@H](NC(=O)Cc1cccc(Oc2ccccc2)c1)C(C)C [Compound A14, (4S,5S)-4-Hydroxy-5-{(S)-3-methyl-2-[2-(3-phenoxyphenyl)acetylamino]-butyrylamino}-6-phenylhexanoic acid (2,6-dimethylphenyl)amide] | – | – | > 30 |
| CC(C)[C@H](NC(=O)Cc1cccc(Oc2ccccc2)c1)C(=O)N[C@@H](Cc1ccccc1)[C@@H](O)CCC(=O)NCc1ccccc1 [Compound A15, (4S,5S)-4-Hydroxy-5-{(S)-3-methyl-2-[2-(3-phenoxyphenyl)acetylamino]-butyrylamino}-6-phenylhexanoic acid benzylamide] | – | – | > 30 |
| CC(C)[C@H](NC(=O)Cc1cccc(Oc2ccccc2)c1)C(=O)N[C@@H](Cc1ccccc1)[C@@H](O)CCC(=O)N1CCc2ccccc21 [Compound A16, (S)-N-[(1S,2S)-1-Benzyl-5-(2,3-dihydroindol-1-yl)-2-hydroxy-5-oxopentyl]-3-methyl-2-[2-(3-phenoxyphenyl)acetylamino]butyramide] | – | – | > 30 |
| COC(=O)[C@@H](NC(=O)[C@H](Cc1ccccc1)NC(=O)CC[C@H](O)[C@H](Cc1ccccc1)NC(=O)[C@@H](NC(=O)[C@H](CC(C)C)NC(=O)CC(C)C)C(C)C)C(C)C [Compound A17, (S)-2-[(S)-2-((4S,5S)-4-Hydroxy-5-{(S)-3-methyl-2-[(S)-4-methyl-2-(3-methylbutyrylamino)pentanoylamino]butyrylamino}-6-phenylhexanoyl-amino)-3-phenylpropionylamino]-3-methylbutyric acid methyl ester] (Isovaleryl-LV[Hexanoyl(5S-NH,4S-OH,6-Ph)]FV-OMe) | 0.255 | – | > 30 |
| CCOc1cccc(CC(=O)N[C@H](C(=O)N[C@@H](Cc2ccccc2)[C@@H](O)CCC(=O)NCCc2ccccc2)C(C)C)c1 [Compound A19, (4S,5S)-5-{(S)-2-[2-(3-Ethoxyphenyl)acetylamino]-3-methylbutyrylamino}-4-hydroxy-6-phenylhexanoic acid phenethylamide] | – | – | > 30 |
| CC(C)[C@H](NC(=O)CCCc1ccccc1)C(=O)N[C@@H](Cc1ccccc1)[C@@H](O)CCC(=O)NCCc1ccccc1 [Compound A20, (4S,5S)-4-Hydroxy-5-[(S)-3-methyl-2-(4-phenylbutyrylamino)butyryl-amino]-6-phenylhexanoic acid phenethylamide] | – | – | > 30 |
